Source: patent US9241885B2, “Oral care compositions comprising increased bioavailable levels of quaternary ammonium antimicrobials” (THE PROCTER & GAMBLE COMPANY, priority 2004, dated 2016)

Assay: Disk Retention Assay (DRA) of CPC bioavailability in mouthrinse formulations
Format: in vitro ADME
Settings: mouthrinse formulation
Source text: In evaluating bioavailability and biological activity of quaternary ammonium antimicrobials in mouthwash formulations, an in vitro Disk Retention Assay (DRA) can be used to estimate drug bioavailability as well as an ex vivo Plaque Glycolysis and Regrowth Model (PGRM) to assess biological activity (S. J. Hunter-Rinderle, et al., “Evaluation of Cetylpyridinium Chloride-Containing Mouthwashes Using In Vitro Disk Retention and Ex Vivo Plaque Glycolysis Methods,” J. Clin. Den., 1997, 8:107-113). These assays are recommended for use in the proposed OTC monograph (Federal Register Vol. 68, No. 103 Part 356, “Oral Health Care Drug Products For Over-The-Counter Human Use; Antigingivitis/Antiplaque Drug Products; Establishment of a Monograph: Proposed Rules”).
This method is designed as a performance assay to analyze mouthrinse formulations containing from about 0.03% to about 0.1% CPC to quantitatively determine the “free” (“unbound”) or “bioavailable” level of CPC needed for clinical efficacy. The DRA assay measures the amount of CPC “binding” to standardized cellulose filter disks during filtration of an undiluted mouthrinse sample. The “bioavailable” CPC binds to the hydroxyl groups on the cellulose fiber during filtration while CPC, which has been rendered “non-bioavailable” (or “bound”)” through interactions with mouthrinse components, simply passes through the filter paper, i.e., the positive charge on the compound is no longer available for binding to the negatively charged cellulose disks. In this way, the DRA test provides an estimate of the amount of CPC available for binding to bacteria and mucosal surfaces during use of the mouthrinse. DRA measurements of CPC availability have been positively correlated to the results of in vitro microbiological assays and in vivo germ kill tests. Historically, cellulose fibers have been used in other applications to similarly monitor biological activity of drug actives (“Dairy Products” in Official Methods of Analysis of the Association of […] Analytical Chemists. 13th ed., 1980, Chapter 16:256).
“Bioavailable” CPC is the amount of CPC bound to or adsorbed to cellulose disks. This is determined by measuring the differences in CPC concentration in the mouthrinse before and after exposure to standardized cellulose disks. The method has been validated and shown to perform with acceptable accuracy, precision, and selectivity. A more detailed description of the test is provided below.
For example, a formulation comprising 0.05% CPC at 72% bioavailability would provide 360 ppm CPC. […] Determination of CPC bioavailability in a finished product is important to product performance as it readily defines the amount (concentration) of active available for deposition at the site of action. Because the positively charged (cationic) hydrophilic region is critical to antimicrobial activity, any formulation component that diminishes the activity of this cationic group or that competes with the group may inactivate the product.
Desirably, a formulation containing 0.05% CPC would have at least about 65% bioavailability to deliver at least about 324 ppm bioavailable CPC. A formulation containing a lower level of CPC such as 0.04% would need to have at least about 81% bioavailability to deliver the minimum required level of bioavailable CPC for efficacy.

For `CCCCCCCCCCCCCCCC[n+]1ccccc1` [CPC, cetylpyridinium chloride], the “% bioavailable CPC” value (0.0 % Poloxamer) was 94.24%, the “% bioavailable CPC” value (0.05 % Poloxamer) was 84.42% and the “% bioavailable CPC” value (0.1 % Poloxamer) was 61.14%. For the same compound, the “% bioavailable CPC” value (0.15 % Poloxamer) was 57.49%, the “% bioavailable CPC” value (0.2 % Poloxamer) was 52.96% and the “% bioavailable CPC” value (0.25 % Poloxamer) was 53.14%. For the same compound, the “% bioavailable CPC” value (0.5 % Poloxamer) was 42.63%, the “% bioavailable CPC” value (0.75 % Poloxamer) was 38.4% and the “% bioavailable CPC” value (1.00 % Poloxamer) was 35.09%. For the same compound, the “bioavailability of CPC” value (level of 0.1% surfactant (Poloxamer) or higher) was “unacceptable bioavailability”.
